Results: patent US10322111B2, “Chemokine receptor binding heterocyclic compounds with enhanced efficacy” (Genzyme Corporation, priority 2001, dated 2019)
Like-named read-outs stand apart in the source and are kept apart here.

System: CFU-GM, BFU-E and CFU-GEMM progenitor cells
Conditions: 80 μg/kg s.c.; for % CHG, BFU-E, methylcellulose culture / % CHG, CFU-GEMM, methylcellulose culture / % CHG, CFU-GM, methylcellulose culture / mean fold change compared to T 0, BFU-E, methylcellulose culture, MEAN / mean fold change compared to T 0, CFU-GEMM, methylcellulose culture, MEAN / mean fold change compared to T 0, CFU-GM, methylcellulose culture, MEAN: all five donors

Compound: c1cc(CN2CCCNCCNCCCNCC2)ccc1CN1CCCNCCNCCCNCC1 [AMD3100, 1,1′-[1,4-phenylene-bis(methylene)]-bis-1,4,8,11-tetraazacyclotetradecane]
- fold change from T=0, progenitors CFU-GM, methylcellulose culture (P3, T = 24 h after injection): 1.43 fold
- Absolute # of Progenitors per ML, BFU-E (P4, T = 1 h after injection): 672 per ML
- Absolute # of Progenitors per ML, CFU-GEMM (P4, T = 1 h after injection): 199 per ML
- Absolute # of Progenitors per ML, CFU-GM (P4, T = 1 h after injection): 947 per ML
- fold change from T=0, progenitors BFU-E, methylcellulose culture (P4, T = 1 h after injection): 1.46 fold
- fold change from T=0, progenitors CFU-GEMM, methylcellulose culture (P4, T = 1 h after injection): 1.96 fold
- fold change from T=0, progenitors CFU-GM, methylcellulose culture (P4, T = 1 h after injection): 6.87 fold
- Absolute # of Progenitors per ML, BFU-E (P4, T = 3 h after injection): 1195 per ML
- Absolute # of Progenitors per ML, CFU-GEMM (P4, T = 3 h after injection): 519 per ML
- Absolute # of Progenitors per ML, CFU-GM (P4, T = 3 h after injection): 2857 per ML
- fold change from T=0, progenitors BFU-E, methylcellulose culture (P4, T = 3 h after injection): 2.60 fold
- fold change from T=0, progenitors CFU-GEMM, methylcellulose culture (P4, T = 3 h after injection): 5.14 fold
- fold change from T=0, progenitors CFU-GM, methylcellulose culture (P4, T = 3 h after injection): 20.72 fold
- Absolute # of Progenitors per ML, BFU-E (P4, T = 6 h after injection): 1533 per ML
- Absolute # of Progenitors per ML, CFU-GEMM (P4, T = 6 h after injection): 920 per ML
- Absolute # of Progenitors per ML, CFU-GM (P4, T = 6 h after injection): 3936 per ML
- fold change from T=0, progenitors BFU-E, methylcellulose culture (P4, T = 6 h after injection): 3.34 fold
- fold change from T=0, progenitors CFU-GEMM, methylcellulose culture (P4, T = 6 h after injection): 9.10 fold
- fold change from T=0, progenitors CFU-GM, methylcellulose culture (P4, T = 6 h after injection): 28.54 fold
- Absolute # of Progenitors per ML, BFU-E (P4, T = 9 h after injection): 1348 per ML
- Absolute # of Progenitors per ML, CFU-GEMM (P4, T = 9 h after injection): 457 per ML
- Absolute # of Progenitors per ML, CFU-GM (P4, T = 9 h after injection): 1942 per ML
- fold change from T=0, progenitors BFU-E, methylcellulose culture (P4, T = 9 h after injection): 2.93 fold
- fold change from T=0, progenitors CFU-GEMM, methylcellulose culture (P4, T = 9 h after injection): 4.52 fold
- fold change from T=0, progenitors CFU-GM, methylcellulose culture (P4, T = 9 h after injection): 14.08 fold
- Absolute # of Progenitors per ML, BFU-E (P4, T = 24 h after injection): 362 per ML
- Absolute # of Progenitors per ML, CFU-GEMM (P4, T = 24 h after injection): 99 per ML
- Absolute # of Progenitors per ML, CFU-GM (P4, T = 24 h after injection): 208 per ML
- fold change from T=0, progenitors BFU-E, methylcellulose culture (P4, T = 24 h after injection): 0.79 fold
- fold change from T=0, progenitors CFU-GEMM, methylcellulose culture (P4, T = 24 h after injection): 0.98 fold
- fold change from T=0, progenitors CFU-GM, methylcellulose culture (P4, T = 24 h after injection): 1.51 fold
- Absolute # of Progenitors per ML, BFU-E (P5, T = 1 h after injection): 730 per ML
- Absolute # of Progenitors per ML, CFU-GEMM (P5, T = 1 h after injection): 169 per ML
- Absolute # of Progenitors per ML, CFU-GM (P5, T = 1 h after injection): 481 per ML
- fold change from T=0, progenitors BFU-E, methylcellulose culture (P5, T = 1 h after injection): 2.13 fold
- fold change from T=0, progenitors CFU-GEMM, methylcellulose culture (P5, T = 1 h after injection): 3.07 fold
- fold change from T=0, progenitors CFU-GM, methylcellulose culture (P5, T = 1 h after injection): 2.84 fold
- Absolute # of Progenitors per ML, BFU-E (P5, T = 3 h after injection): 1288 per ML
- Absolute # of Progenitors per ML, CFU-GEMM (P5, T = 3 h after injection): 244 per ML
- Absolute # of Progenitors per ML, CFU-GM (P5, T = 3 h after injection): 1423 per ML
- fold change from T=0, progenitors BFU-E, methylcellulose culture (P5, T = 3 h after injection): 3.75 fold
- fold change from T=0, progenitors CFU-GM, methylcellulose culture (P5, T = 3 h after injection): 8.40 fold
- Absolute # of Progenitors per ML, BFU-E (P5, T = 6 h after injection): 3208 per ML
- Absolute # of Progenitors per ML, CFU-GEMM (P5, T = 6 h after injection): 987 per ML
- Absolute # of Progenitors per ML, CFU-GM (P5, T = 6 h after injection): 3454 per ML
- fold change from T=0, progenitors BFU-E, methylcellulose culture (P5, T = 6 h after injection): 9.35 fold
- fold change from T=0, progenitors CFU-GEMM, methylcellulose culture (P5, T = 6 h after injection): 17.92 fold
- fold change from T=0, progenitors CFU-GM, methylcellulose culture (P5, T = 6 h after injection): 20.39 fold
- Absolute # of Progenitors per ML, BFU-E (P5, T = 9 h after injection): 1731 per ML
- Absolute # of Progenitors per ML, CFU-GEMM (P5, T = 9 h after injection): 526 per ML
- Absolute # of Progenitors per ML, CFU-GM (P5, T = 9 h after injection): 1710 per ML
- fold change from T=0, progenitors BFU-E, methylcellulose culture (P5, T = 9 h after injection): 5.05 fold
- fold change from T=0, progenitors CFU-GEMM, methylcellulose culture (P5, T = 9 h after injection): 9.55 fold
- fold change from T=0, progenitors CFU-GM, methylcellulose culture (P5, T = 9 h after injection): 10.09 fold
- Absolute # of Progenitors per ML, BFU-E (P5, T = 24 h after injection): 495 per ML
- Absolute # of Progenitors per ML, CFU-GEMM (P5, T = 24 h after injection): 124 per ML
- Absolute # of Progenitors per ML, CFU-GM (P5, T = 24 h after injection): 310 per ML
- fold change from T=0, progenitors BFU-E, methylcellulose culture (P5, T = 24 h after injection): 1.44 fold
- fold change from T=0, progenitors CFU-GEMM, methylcellulose culture (P5, T = 24 h after injection): 2.25 fold
- fold change from T=0, progenitors CFU-GM, methylcellulose culture (P5, T = 24 h after injection): 1.83 fold
- % CHG, BFU-E, methylcellulose culture (T = 1 h after injection): 98.9%
- % CHG, CFU-GEMM, methylcellulose culture (T = 1 h after injection): 131.8%
- % CHG, CFU-GM, methylcellulose culture (T = 1 h after injection): 376.7%
- mean fold change compared to T 0, BFU-E, methylcellulose culture, MEAN (T = 1 h after injection): 1.99 fold
- mean fold change compared to T 0, CFU-GEMM, methylcellulose culture, MEAN (T = 1 h after injection): 2.32 fold
- mean fold change compared to T 0, CFU-GM, methylcellulose culture, MEAN (T = 1 h after injection): 4.77 fold
- % CHG, BFU-E, methylcellulose culture (T = 3 h after injection): 221.3%
- % CHG, CFU-GEMM, methylcellulose culture (T = 3 h after injection): 332.5%
- % CHG, CFU-GM, methylcellulose culture (T = 3 h after injection): 1266.5%
- mean fold change compared to T 0, BFU-E, methylcellulose culture, MEAN (T = 3 h after injection): 3.21 fold
- mean fold change compared to T 0, CFU-GEMM, methylcellulose culture, MEAN (T = 3 h after injection): 4.33 fold
- mean fold change compared to T 0, CFU-GM, methylcellulose culture, MEAN (T = 3 h after injection): 13.66 fold
- % CHG, BFU-E, methylcellulose culture (T = 6 h after injection): 500.5%
- % CHG, CFU-GEMM, methylcellulose culture (T = 6 h after injection): 907.2%
- % CHG, CFU-GM, methylcellulose culture (T = 6 h after injection): 2070.6%
- mean fold change compared to T 0, BFU-E, methylcellulose culture, MEAN (T = 6 h after injection): 6.01 fold
- mean fold change compared to T 0, CFU-GEMM, methylcellulose culture, MEAN (T = 6 h after injection): 10.07 fold
- mean fold change compared to T 0, CFU-GM, methylcellulose culture, MEAN (T = 6 h after injection): 21.71 fold
- % CHG, BFU-E, methylcellulose culture (T = 9 h after injection): 334.4%
- % CHG, CFU-GEMM, methylcellulose culture (T = 9 h after injection): 425.4%
- % CHG, CFU-GM, methylcellulose culture (T = 9 h after injection): 947.3%
- mean fold change compared to T 0, BFU-E, methylcellulose culture, MEAN (T = 9 h after injection): 4.34 fold
- mean fold change compared to T 0, CFU-GEMM, methylcellulose culture, MEAN (T = 9 h after injection): 5.25 fold
- mean fold change compared to T 0, CFU-GM, methylcellulose culture, MEAN (T = 9 h after injection): 10.47 fold
- % CHG, BFU-E, methylcellulose culture (T = 24 h after injection): 26.3%
- % CHG, CFU-GEMM, methylcellulose culture (T = 24 h after injection): 53.2%
- % CHG, CFU-GM, methylcellulose culture (T = 24 h after injection): 55.5%
- mean fold change compared to T 0, BFU-E, methylcellulose culture, MEAN (T = 24 h after injection): 1.26 fold
- mean fold change compared to T 0, CFU-GEMM, methylcellulose culture, MEAN (T = 24 h after injection): 1.53 fold
- mean fold change compared to T 0, CFU-GM, methylcellulose culture, MEAN (T = 24 h after injection): 1.56 fold
